From ChEMBL document CHEMBL1140189, “Lignans from the roots of Saururus chinensis” (J Nat Prod, 2008)

Columns and labels:
Format in all cases: functional, cell-based
HT-29 = assay: Cytotoxicity against human HT29 cells by MTT assay
HepG2 = assay: Cytotoxicity against human HEPG2 cells by MTT assay
MCF7 = assay: Cytotoxicity against human MCF7 cells by MTT assay

CC(Cc1cc2c(cc1O)OCO2)[C@@H](C)[C@H](O)c1ccc2c(c1)OCO2 (single isomer, unassigned) [SAUCERNEOL H]
IC50 (HT-29): 53 µM | IC50 (HepG2): 61 µM | IC50 (MCF7): 72 µM

CC[C@@]1(O)C(=O)OCc2c1cc1n(c2=O)Cc2cc3ccccc3nc2-1 [CAMPTOTHECIN]
IC50 (HT-29): 2 µM | IC50 (HepG2): 0.3 µM | IC50 (MCF7): 10 µM

COc1ccc([C@H](O)[C@@H](C)Oc2ccc([C@H]3O[C@H](c4ccc5c(c4)OCO5)[C@H](C)[C@H]3C)cc2OC)cc1OC [SAUCERNEOL D]
IC50 (HT-29): 13 µM | IC50 (HepG2): 16 µM | IC50 (MCF7): > 100 µM

COc1cc([C@H]2O[C@H](c3ccc4c(c3)OCO4)[C@H](C)[C@H]2C)ccc1O[C@H](C)[C@@H](O)c1ccc2c(c1)OCO2 [SAUCERNEOL F]
IC50 (HT-29): 10 µM | IC50 (HepG2): 11 µM | IC50 (MCF7): > 100 µM

CC(Cc1cc2c(cc1O)OCO2)C(C)C(=O)c1ccc2c(c1)OCO2 (stereo not drawn) [SAUCERNEOL G]
IC50 (HT-29): 55 µM | IC50 (HepG2): 62 µM | IC50 (MCF7): 64 µM

C[C@@H]([C@H](C)[C@H](O)c1ccc2c(c1)OCO2)[C@H](O)c1ccc2c(c1)OCO2 [SAUCERNEOL I]
IC50 (HT-29): 21 µM | IC50 (HepG2): > 100 µM | IC50 (MCF7): > 100 µM
